# Measured values from publication PMC6203393, “Identification of novel antimicrobial peptide from Asian sea bass (Lates calcarifer) by in silico and activity characterization” (PLoS ONE, 2018).
# Read-outs that look alike come from different tables or passages of the source.
# Experiments:
# E.coli = assay: Binding affinity to bacteria, cell-based fluorometric ELISA, salt effect; parameters: species or system Escherichia coli; conditions: in the presence of 10 mM MgCl2; 5-FAM-labeled peptide 2.5μg/ml, 2 hours at 37°C; fluorescence 490/560 nm
# Experimental: Antimicrobial peptides bind to the bacterial cell wall through an electrostatic interaction between the positive charge of AMPs with the negative charge of the bacterial cell wall. […] To determine optimal binding conditions, different concentrations of the bacteria (12.5×10^7, 25×10^7, 5×10^8, 1×10^9 cell/ml) and 5-FAM-labeled peptide (1.25, 2.5, 5, and 10 μg/ml) were prepared. Bacterial suspension from each bacterial concentration was added to 4 wells of Maxisorp 96-well microplates (each well 100 μl) and incubated for 3 hours at 37°C without agitation. The planktonic cells were carefully discarded by pipetting and the adherent cells were washed three times with PBS buffer (pH 7.4). Bacteria were fixed with 100 μl of 4% paraformaldehyde and incubated for 0.5 hours at 37°C. The paraformaldehyde was removed and the wells were washed three times with PBS buffer (pH 7.4). The wells were air-dried and fixed cells were confirmed with an inverted microscope. […] After three washing steps with PBS-T buffer, the fluorescence intensity was measured using a fluorescence microplate reader (BioTek Synergy 4, USA) at 490/560 nm (Ex/Em). […] Under the optimized conditions, the binding affinity of both peptides to bacteria was assessed. […]
# [1] = test system: Escherichia coli (ATCC 25922); format: cell-based; conditions: for increase of MIC value: E.coli
# Experimental: (§1) Briefly, a series of two-fold dilutions of each peptide(300, 150, 75, 37.5, 18.75, 9.37, 4.68 and 2.34μg/ml) was created with 0.01% acetic acid and 0.2% BSA (bovine serum albumin) and then 50 μl of each peptide dilution was added to each well of polystyrene flat bottom 96-well microplate (Sigma-Aldrich, Germany). Microbial suspension was diluted with BHI medium or RPMI medium to provide density of 1×10^6 cell/ml and 50 μl of diluted microbial suspension was added to wells containing 50 μl of peptide solution, providing a final concentration of 5×10^5 cell/ml and incubated for 18 hours at 37 °C. The sterility control well contained 100 μl of BHI (or RPMI), while the growth control well contained 100 μl of microbial suspension (5×10^5 cell/ml). The MIC values was defined as the lowest peptide concentration that prevented visible growth of the bacteria. Three independent tests were performed for each peptide concentration.
# In the next step, the pH and salt concentration effect on MIC of AMPs were assayed. To evaluate the effect of cations on the antibacterial activity of AMPs, bacteria were cultured in the BHI medium containing increased concentrations of monovalent or divalent salt including NaCl (62,125,250 and 500 mM), MgCl2 (1,5, 10 and 30 mM), respectively.
# [2] = test system: Acinetobacterbaumannii(Clinical isolate); format: cell-based, Acinetobacter baumannii; conditions: Brain heart infusion; 5×10^5 cell/ml; 18 hours at 37 °C; three independent tests
# Experimental: as §1
# [3] = test system: Enterococcus faecalis (ATCC:6057); assay: MIC at different pH values; format: cell-based; conditions: 37°C for 18 hours
# Experimental: The antibacterial activity of both peptides were assessed against Enterococcus faecalis, a bacteria resistance to alkaline environments (ATCC:6057), at different pH values (pH range: 7.4, 8.5, 9.5, or 10.5). The bacteria were cultured in the BHI medium adjusted to varying pH values (pH range: 7.4, 8.5, 9.5, and 10.5). After incubation at 37°C for 18 hours, the MIC values were determined.
# [4] = RP HPLC retention time of peptides; format: physicochemical; conditions: Inertsil ODS-SP 4.6*250 mm 5μm, linear 0–100% acetonitrile with 0.1% trifluoroacetic acid, 1ml/minute, 30 minutes, highest peak in 214 nm, used as hydrophobicity measure
# Experimental: The retention time of the peptides were calculated by RP HPLC using an analytical SHIMADZU Inertsil ODS-SP (4.6*250 mm* 5μm) column. A linear gradient of 0–100% acetonitrile supplemented with 0.1% trifluoroacetic acid was used to elute peptides at a flow rate 1ml/minute for 30 minutes. The highest peak in 214 nm was considered as the retention time for each peptide.
# E. faecalis [5] = assay: Antiadhesive assay, pH effect (crystal violet); format: cell-based, Enterococcus faecalis; conditions: peptide at 1/32×MIC, BHI pH 7.4, 8.5, 9.5, 10.5, 1 hour, 595 nm
# [6] = test system: clinical A. baumannii isolate; assay: Time-kill analysis; format: cell-based, Acinetobacter baumannii; conditions: 5×10^5 cell/ml in BHI, 37°C, bactericidal = ≥3-log10 reduction, mean of two independent experiments
# Experimental: Time-Kill assay was performed to investigate bactericidal activity of both peptides against antibiotic resistant bacteria including S. aureus (MRSA), and clinical A. baumannii isolate. […] Colony count was performed after incubation at 37°C for 0, 2, 4, 8, 12 and 24 h by plating of 10-fold dilutions on LB agar. […] The lower limit of detection for time-kill assays was 2 log10 CFU/ml.
# [7] = test system: Pseudomonas aeruginosa (ATCC10662); format: cell-based; conditions: Brain heart infusion; 5×10^5 cell/ml; 18 hours at 37 °C; three independent tests
# Experimental: as §1
# [8] = test system: Candida glabrata(clinical isolate); format: cell-based; conditions: RPMI medium; 5×10^5 cell/ml; 18 hours at 37 °C; three independent tests
# Experimental: as §1
# [9] = test system: Candida albicans (clinical isolate); format: cell-based; conditions: RPMI medium; 5×10^5 cell/ml; 18 hours at 37 °C; three independent tests
# Experimental: as §1
# [10] = test system: Candida tropicalis(clinical isolate); format: cell-based; conditions: RPMI medium; 5×10^5 cell/ml; 18 hours at 37 °C; three independent tests
# Experimental: as §1
# [11] = test system: Staphylococcus aureus(MRSA); format: cell-based; conditions: Brain heart infusion; 5×10^5 cell/ml; 18 hours at 37 °C; three independent tests
# Experimental: as §1
# [12] = test system: Staphylococcus epidermidis (ATCC 1435); format: cell-based; conditions: Brain heart infusion; 5×10^5 cell/ml; 18 hours at 37 °C; three independent tests
# Experimental: as §1
# [13] = test system: Staphylococcus aureus(ATCC 25923); format: cell-based; conditions: Brain heart infusion; 5×10^5 cell/ml; 18 hours at 37 °C; three independent tests
# Experimental: as §1
# E. faecalis [14] = assay: Antibiofilm assay, pH effect (crystal violet); format: cell-based, Enterococcus faecalis; conditions: peptide at 1/32×MIC, BHI pH 7.4, 8.5, 9.5, 10.5, 24 hours, 595 nm
sequence,measurement,setting,value
"FLRSLLRGAKAIYRGARAGWRG [Dicentracin-like, 22-amino-acid mature AMP from Asian sea bass; synthesized with N-terminal 5-FAM and amidated C-terminus]",reduction in affinity binding to bacteria,E.coli,1.6 fold
same,Activity (MIC) against E.coli,[1]; BHI medium with MgCl2 1 mM,4.68 µg/mL
same,Activity (MIC) against E.coli,[1]; BHI medium with MgCl2 5 mM,18.75 µg/mL
same,Activity (MIC) against E.coli,[1]; BHI medium with MgCl2 10 mM,18.75 µg/mL
same,Activity (MIC) against E.coli,[1]; BHI medium with MgCl2 30 mM,75 µg/mL
same,Activity (MIC) against E.coli,[1]; BHI medium with NaCl 62 mM,4.68 µg/mL
same,Activity (MIC) against E.coli,[1]; BHI medium with NaCl 125 mM,4.68 µg/mL
same,Activity (MIC) against E.coli,[1]; BHI medium with NaCl 250 mM,6.05 µg/mL
same,Activity (MIC) against E.coli,[1]; BHI medium with NaCl 500 mM,9.37 µg/mL
same,minimum inhibitory concentration (MIC),"[1]; Brain heart infusion, 5×10^5 cell/ml, 18 hours at 37 °C, lowest concentration preventing visible growth, three independent tests",4.68 µg/mL
same,increase of MIC value,"[1]; in the presence of 5 mM and 10 mM MgCl2, MIC (MgCl2) /MIC",4 fold
same,increase of MIC value,[1]; in the presence of 30 mM MgCl2,16 fold
same,increase of MIC value,[1]; in the presence of 500 mM NaCl,2 fold
same,Activity (MIC) against E.coli,[1]; Physiological salt concentrations (150 mM NaCl 3 mM CaCl2 2 mM MgCl2),4.68 µg/mL
same,minimum inhibitory concentration (MIC),[2],18.75 µg/mL
same,MIC(fold increase),[3]; BHI medium pH 7.4,1 fold
same,MIC(fold increase),[3]; BHI medium pH 8.5,1 fold
same,MIC(fold increase),"[3]; BHI medium pH 8.5, listed as dicentracin-like",no reduction
same,MIC(fold increase),[3]; BHI medium pH 9.5,2 fold
same,MIC(fold increase),[3]; BHI medium pH 10.5,4 fold
same,retention time (main peak),[4],20.518 min
same,antiadhesive activity (bacterial adhesion relative to corresponding control),E. faecalis [5],significantly decrease the bacterial adhesion and biofilm formation at pH values from 7.4 to 9.5
same,time after which bactericidal effect was observed,[6]; 1XMIC,4 h
same,time after which bactericidal effect was observed,[6]; 2XMIC,2 h
same,minimum inhibitory concentration (MIC),[7],37.5 µg/mL
same,minimum inhibitory concentration (MIC),[8],>150 µg/mL
same,minimum inhibitory concentration (MIC),[9],4.68 to 9.37 µg/mL
same,minimum inhibitory concentration (MIC),[10],4.68 to 9.37 µg/mL
same,minimum inhibitory concentration (MIC),[11],4.68 µg/mL
same,minimum inhibitory concentration (MIC),[12],1.17 µg/mL
same,minimum inhibitory concentration (MIC),[13],4.68 µg/mL
same,antibiofilm activity (biofilm formation relative to corresponding control),E. faecalis [14],significantly decrease the bacterial adhesion and biofilm formation at pH values from 7.4 to 9.5
